Measured values taken from patent publication US20260209256A1, “PHOSPHINE OXIDE-BASED PHOTOINITIATORS” (Arkema France, priority 2022, published 2026).

How the values were obtained:
[1] = Curing experiments: belt cure under LED lamp at 395 nm; settings: LED 395 nm, 50 μm film
Method: Testing Protocol: Formulations were prepared by combining all materials in the given proportions and then stirring at 30-40° C. until the samples were fully homogeneous; the formulations were then allowed to cool to 20° C. All components remained fully dissolved in the resin formulations throughout these experiments. For all experiments, the formulations were cured on Leneta Form 3N-31 gloss finish paper at 50 μm film thickness using a belt-cure instrument; the films were prepared using a K-bar. All films were then cured under an LED lamp at 395 nm at a belt speed of 10 m/min. The cure speed for each formulation was calculated from the number of passes under each lamp required to give complete surface cure (determined when light scratching of the surface of the film no longer left a mark) and depth cure (determined using the ‘thumb-twist’ test, where no visible mark is made when a thumb is pressed down firmly onto the coating with a twisting motion), and from the belt speed; the calculated cure speed (in m/min) is given in Tables 1A-1B as an average of 3 runs. Where cure speed was less than 0.3 m/min, the result was recorded as ‘No cure’.

[2] = FTIR test: acrylate conversion; settings: FIG. 2A
Method: A Fourier Transform Infrared (FTIR) with an Attenuated Total Reflection (ATR) setup was used. All polymerization rate measurements were performed using Nicolet iS50 FT-IR Spectrometer from Thermo Scientific, equipped with a standard DLaTGS detector. A lamp holder for the ART platform of FTIR unit can be customized and printed from Arkema N3xtDimention® engineered resin N3D-TOUGH784 in order to ensure precisely fit of a 405 nm lamp AccuCure ULM-2-405 from Digital Light Labs. On the bottom of this lamp holder, a dry air channel is built in to allow air uniformly blowing over sample surface, the gas flow rate can be controlled over a rotameter. The LED light was manually triggered by Ultraviolet illumination & Measurement System. […] Measurements of acrylate conversion were taken at the height under the reference peak around 1720 cm^−1; the acrylate peak at approximately 1407 cm^−1 was also measured. Peak height was determined using the baseline technique where a baseline is chosen to be the two lowest points between 600 cm^−1 and 1800 cm^−1. The height under the peak and above the baseline was then determined. […]
The ratio of the acrylate height to the reference peak height were determined for both the liquid and the cured samples. Degree of cure or conversion, expressed as percentage reacted acrylate, was calculated from the equation below: […]

[3] = LED-DSC test of 3D printing curable compositions
Method: A photo differential scanning calorimetry (DSC) with a customized 405 nm LED lamp setup was used. All photopolymerization rate measurement were performed using a Q2000 DSC unit from TA Instruments. A lamp holder for the DSC unit can be customized and printed from Arkema N3xtDimention® engineered resin N3D-TOUGH784 in order to ensure precisely fit of a 405 nm lamp AccuCure ULM-2-405 from Digital Light Labs. The LED light was automatically triggered by connecting the “Event” outlet of the DSC unit to an Accure Photo Rheometer Ultraviolet Illumination & Measurement System. LED light exposure can be programed by using “Event” on or off from Photo DSC software, but the intensity of light can be preset from the Accure Photo Rheometer Ultraviolet Illumination & Measurement System. For measurement, approximate 10 mg liquid sample was placed at the center of a T130522 DSC Tzero pan, cured by exposing it to 50 mW/cm^2 of 405 nm LED light for 0.3 minutes under a 50 mL/min N2 flow rate and 40° C. The resulting heat flow (W/g) curve was collected to analyze maximum heat flow peak value and maximum peak time, and listed in Table 3A.

[4] = UV PhotoDSC of nail gel top coat compositions
Method: Photo Differential Scanning Calorimetry (PhotoDSC) was used to measure the cure speed, heat generation during cure and heat flow measurements for the UV curable top coat compositions containing TPO, TPO-L and Photoinitiator 9 as shown in Table 2C below. PhotoDSC was measured using a TA instruments Q2000 DSC equipped with an EFOS A4000 Acticure UVNisible light curing system containing a 100 W Mercury lamp light source. The UV-light intensity was measured out of the sample window using an EIT UV power puck II radiometer prior to the experiment. Sample preparation for PhotoDSC occurred as follows: A Tzero aluminum reference pan and a Tzero aluminum sample pan were weighed. One drop of formulation (about 5-15 milligrams) was placed at the center of the sample pan and the mass was recorded. The two pans were placed in the DSC apparatus. The system was stabilized at 25° C. for 30 seconds under a continuous stream of nitrogen. An isothermal experiment was initiated and sample and reference pan were flooded with UVNisible light (320 to 450 nm, 190-210 mJ/cm^2) for two minutes. An exothermic peak, due to crosslinking, is recorded during the experiment. The cure speed is measured by determining the time it takes to reach the peak max while the lamp is turned on. The area under the peak is recorded as the heat flow value (J/g). The max temperature during cure is recorded as the temperature shown at the maximum peak during cure.

[5] = Stability by LED-FTIR analysis at 405 nm (accelerated ageing); format: physicochemical; settings: photoinitiator or formulation aged at 60° C. for 1 week, 10 mW, dry air, FIG. 6A/6B
Method: The cure speed of aged samples comprising Photoinitiator 11 vs Speedcure TPO was acquired in experimental formulations using LED-FTIR analysis. The photoinitiator was aged at 60° C. for 1 week, then made into formulation and directly compared to ageing the photoinitiator in formulation at 60° C. for 1 week.
LED FT-IR Analysis was conducted on a ThermoScientific Nicolet iS50 Ft-IR Spectrometer with a standard DLaTGS detector 2. A film applicator was used to spread the applied sample into a film of 3 mils thickness. For analysis all the spectra are normalized by using the 1727 cm^−1 (—C═O stretch) peak as reference. For acrylic monomers, the decrease in peak height of C═C peak at 1407 cm^−1 was used for measuring conversion versus time The degree of conversion of the monomers was calculated by measuring the peak height. The stability results for the formulations comprising Speedcure TPO are shown in FIG. 6A and stability the results for the formulations comprising Photoinitiator 11 are shown in FIG. 6B.

[6] = Stability in inkjet formulations, mercury curing; format: physicochemical; settings: cyan ink, same phosphine oxide w/w %, 6 μm film; FIG. 7A
Method: Resins and photoinitiators were mixed at the target weight ratio before gently stirring using magnetic stirrers at 30-40° C. for 3 hours. Solubility was checked by eye to confirm full dissolution. Curing results at target film weight, were checked by lightly scratching for surface curing and compressed thumb twist for depth curing. Average curing speed was calculated using the belt speed divided by the passing number recorded when full cured resin was achieved. For practical purposes, curing speed less than 0.3 m/min was categorised as “No cure”. Duplicate curing was performed for the same formulation, average curing speed was used for final comparisons.
Cure speed of samples was checked at T=0, then samples were aged in an oven at 60° C. for 2 weeks before reassessing cure speed. Comparison of the initial cure speed vs the cure speed of aged samples was directly compared. Lamp system: the mercury lamp was at an intensity of 50%, with belt speed 10 m/min The LED lamp was set at 395 nm, with a lamp intensity of 70%, at belt speed 20 m/min

[7] = Stability in inkjet formulations, LED curing 395 nm; format: physicochemical; settings: cyan ink, 6 μm film; FIG. 7B
Method: Resins and photoinitiators were mixed at the target weight ratio before gently stirring using magnetic stirrers at 30-40° C. for 3 hours. Solubility was checked by eye to confirm full dissolution. Curing results at target film weight, were checked by lightly scratching for surface curing and compressed thumb twist for depth curing. Average curing speed was calculated using the belt speed divided by the passing number recorded when full cured resin was achieved. For practical purposes, curing speed less than 0.3 m/min was categorised as “No cure”. Duplicate curing was performed for the same formulation, average curing speed was used for final comparisons. […] Comparison of the initial cure speed vs the cure speed of aged samples was directly compared. […] Film weights were 6 μm.

[8] = 8% w/w photoinitiator in 7:3 w/w bisphenol A ethoxylate diacrylate/tripropylene glycol diacrylate, average of 3 runs
[9] = same active phosphine oxide concentration (given Wt %) in 7:3 w/w bisphenol A ethoxylate diacrylate/tripropylene glycol diacrylate
[10] = compositions containing 2 wt % photoinitiator
[11] = compositions containing 4 wt % photoinitiator

Row | SMILES | Cure speed (m/min) Depth cure [1, 8] | Cure speed (m/min) Surface cure [1, 8] | Cure speed (m/min) Depth cure [1, 9] | Cure speed (m/min) Surface cure [1, 9] | cure speed in formulations at the same equivalent of phosphine oxide [2] | cure speed in formulations at the same equivalent of phosphine oxide [3] | time to peak max [4, 10] | time to peak max [4, 11] | stability: cure speed after accelerated ageing [5] | initial curing performance under mercury lamp [6] | initial curing under 395 nm LED [7]
1 | CCCCNC(=O)C(CC(=O)c1c(C)cc(C)c(C(=O)P(=O)(c2ccccc2)c2ccccc2)c1C)N1CCOCC1 (single isomer, unassigned) [Photoinitiator 3] | 3.9 m/min | No cure (Where cure speed was less than 0.3 m/min, the result was recorded as ‘No cure’) | 5.0 m/min | 1.7 m/min |  |  |  |  |  |  | 
2 | CCCCNC(=O)C(CC(=O)c1c(C)cc(C)c(C(=O)P(=O)(c2ccccc2)c2ccccc2)c1C)N1CCN(C)CC1 (single isomer, unassigned) [Photoinitiator 4] | 5.0 m/min | No cure (Where cure speed was less than 0.3 m/min, the result was recorded as ‘No cure’) | 5.0 m/min | 1.6 m/min |  |  |  |  |  |  | 
3 | CCCCNC(=O)/C=C\C(=O)c1c(C)cc(C)c(C(=O)P(=O)(c2ccccc2)c2ccccc2)c1C [Precursor 3] | 1.8 m/min | No cure (Where cure speed was less than 0.3 m/min, the result was recorded as ‘No cure’) | 1.8 m/min | No cure (Where cure speed was less than 0.3 m/min, the result was recorded as ‘No cure’) |  |  |  |  |  |  | 
4 | Cc1cc(C)c(C(=O)P(=O)(c2ccccc2)c2ccccc2)c(C)c1 [SpeedCure TPO, 2,4,6-trimethylbenzoyl diphenyl phosphine oxide] | 5.6 m/min | 2.2 m/min | 5.6 m/min | 2.2 m/min | Precursor 4<Photoinitiator 6<TPO | Precursor 4<Photoinitiator 6<TPO | 0.5 min | 0.06 min | larger reduction in cure speed than Photoinitiator 11 |  | 
5 | Cc1cc(C)c(C(=O)P(=O)(C(=O)c2c(C)cc(C)cc2C)c2ccccc2)c(C)c1 [Speedcure BPO, bis-(2,4,6-trimethylbenzoyl)phenyl phosphine oxide] |  |  |  |  |  |  |  |  |  | closely followed | best curing results
6 | CCOP(=O)(C(=O)c1c(C)cc(C)cc1C)c1ccccc1 (stereo not shown) [Speedcure TPO-L, Ethyl (2,4,6-trimethylbenzoyl)phenyl phosphinate] |  |  |  |  |  |  | 0.06 min | 0.06 min |  |  | 
